According to ChEMBL document CHEMBL6087469, “Targeting Oncogenic RET Kinase by Simultaneously Inhibiting Kinase Activity and Degrading the Protein” (J Med Chem, 2025):
Active and inactive are the calls of the source. No cut-off for these calls is given here.

Assays:
[1] = test system: TPC1; test: Inhibition of cell proliferation in human TPC1 cells measured after 5 days by Cell Titer Glo assay; type: functional, cell-based; settings: time 5.0 day
[2] = AUC (0 to infinity) in mouse at 50 mg/kg, ip measured for 48 hrs by LC/MS/MS analysis; type: ADME, organism-based; settings: in vivo
[3] = Cmax in mouse at 50 mg/kg, ip measured for 48 hrs by LC/MS/MS analysis; type: ADME, organism-based; settings: in vivo
[4] = Tmax in mouse at 50 mg/kg, ip measured for 48 hrs by LC/MS/MS analysis; type: ADME, organism-based; settings: in vivo
[5] = Half life in mouse at 50 mg/kg, ip measured for 48 hrs by LC/MS/MS analysis; type: ADME, organism-based; settings: in vivo
[6] = test system: TPC1; test: Downregulation of CDK2 expression in human TPC1 cells at 200 nM incubated for 24 hrs by TMT mass spectrometric proteomic analysis; type: functional, cell-based
[7] = test system: TPC1; test: Downregulation of AURKA expression in human TPC1 cells at 200 nM incubated for 24 hrs by TMT mass spectrometric proteomic analysis; type: functional, cell-based
[8] = test system: TPC1; test: Downregulation of AURKB expression in human TPC1 cells at 200 nM incubated for 24 hrs by TMT mass spectrometric proteomic analysis; type: functional, cell-based
[9] = test system: TPC1; test: Downregulation of MKI67 expression in human TPC1 cells at 200 nM incubated for 24 hrs by TMT mass spectrometric proteomic analysis; type: functional, cell-based
[10] = test system: TPC1; test: Downregulation of CDKN1B expression in human TPC1 cells at 200 nM incubated for 24 hrs by TMT mass spectrometric proteomic analysis; type: functional, cell-based
[11] = molecular target: Coiled-coil domain-containing protein 6/Tyrosine-protein kinase receptor RET (Homo sapiens) (UniProt P07949+Q16204); test: Inhibition of CCDC6-RET fusion kinase activity in human TPC1 cells upto 250 nM incubated for 24 hrs by immunoblotting analysis; type: cell-based
Chain of Coiled-coil domain-containing protein 6/Tyrosine-protein kinase receptor RET (Homo sapiens) (P07949 29-1114 limits assumed): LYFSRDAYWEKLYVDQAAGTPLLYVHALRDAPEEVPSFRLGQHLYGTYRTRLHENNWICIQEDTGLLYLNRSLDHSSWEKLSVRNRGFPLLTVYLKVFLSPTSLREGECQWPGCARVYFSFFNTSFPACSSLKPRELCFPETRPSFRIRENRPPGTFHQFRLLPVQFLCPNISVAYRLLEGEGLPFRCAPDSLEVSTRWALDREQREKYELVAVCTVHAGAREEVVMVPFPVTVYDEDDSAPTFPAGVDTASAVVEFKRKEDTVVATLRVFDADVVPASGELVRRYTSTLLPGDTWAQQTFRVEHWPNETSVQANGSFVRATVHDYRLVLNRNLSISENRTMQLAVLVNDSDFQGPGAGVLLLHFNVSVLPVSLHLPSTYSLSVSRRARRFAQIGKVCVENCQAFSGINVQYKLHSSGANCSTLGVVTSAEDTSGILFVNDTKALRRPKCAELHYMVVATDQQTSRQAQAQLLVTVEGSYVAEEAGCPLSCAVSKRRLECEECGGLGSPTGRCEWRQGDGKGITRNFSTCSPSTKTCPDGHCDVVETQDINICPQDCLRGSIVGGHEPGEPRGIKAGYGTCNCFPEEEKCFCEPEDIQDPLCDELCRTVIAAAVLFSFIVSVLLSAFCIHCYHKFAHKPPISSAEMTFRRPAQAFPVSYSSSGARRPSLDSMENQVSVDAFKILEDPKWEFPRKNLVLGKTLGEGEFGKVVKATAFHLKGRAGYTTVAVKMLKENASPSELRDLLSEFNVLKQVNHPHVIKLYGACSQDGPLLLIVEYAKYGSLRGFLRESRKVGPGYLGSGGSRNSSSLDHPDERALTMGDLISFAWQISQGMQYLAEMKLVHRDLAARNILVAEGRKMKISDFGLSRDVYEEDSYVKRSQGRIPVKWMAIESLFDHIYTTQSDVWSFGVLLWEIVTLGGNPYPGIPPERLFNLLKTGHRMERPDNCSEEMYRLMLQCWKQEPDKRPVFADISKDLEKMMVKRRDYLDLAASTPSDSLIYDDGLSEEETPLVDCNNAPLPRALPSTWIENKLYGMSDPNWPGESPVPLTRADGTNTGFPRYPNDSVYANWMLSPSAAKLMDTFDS
Chain of Coiled-coil domain-containing protein 6/Tyrosine-protein kinase receptor RET (Homo sapiens) (Q16204 2-474 partner limits assumed): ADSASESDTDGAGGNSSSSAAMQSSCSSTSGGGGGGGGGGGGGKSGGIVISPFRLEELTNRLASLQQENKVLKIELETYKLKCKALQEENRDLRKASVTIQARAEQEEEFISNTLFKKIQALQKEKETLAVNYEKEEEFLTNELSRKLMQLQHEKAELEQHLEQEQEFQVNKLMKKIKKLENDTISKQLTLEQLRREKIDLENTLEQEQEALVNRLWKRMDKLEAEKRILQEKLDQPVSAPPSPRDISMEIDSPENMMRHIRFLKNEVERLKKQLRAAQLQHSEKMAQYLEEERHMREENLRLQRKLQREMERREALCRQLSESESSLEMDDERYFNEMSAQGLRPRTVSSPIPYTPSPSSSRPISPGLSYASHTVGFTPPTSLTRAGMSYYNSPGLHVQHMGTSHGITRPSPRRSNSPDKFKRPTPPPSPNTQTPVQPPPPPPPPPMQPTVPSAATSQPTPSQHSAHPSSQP

[12] = test system: TPC1; test: Induction of CCDC6-RET fusion degradation in human TPC1 cells upto 250 nM incubated for 24 hrs by immunoblotting analysis; type: cell-based

**Q.** What does the source list for COc1ccc(CN2C3CC2CN(c2ccc(-c4cc(OCCCC(=O)N5CCC(N6CCC(C#Cc7ccc(C(=O)NCC#Cc8ccc9c(c8)CN(C8CCC(=O)NC8=O)C9=O)cc7)CC6)CC5)cn5ncc(C#N)c45)cn2)C3)cn1 (stereo not drawn)?
**A.** inhibition [1]: Active; AUC(0-inf) [2]: 3670 ng·h/mL; Cmax ([3]; read-out: Cmax): 1140 ng/mL; Tmax ([4]; read-out: Tmax): 1 h; half-life [5]: 7.3 h

**Q.** For COc1ccc(CN2C3CC2CN(c2ccc(-c4cc(OCC(C)(C)O)cn5ncc(C#N)c45)cn2)C3)cn1, which Activity [6] is on record?
**A.** Active

**Q.** What about the Activity [7] of the same compound?
**A.** Active

**Q.** What about the Activity [8] of the same compound?
**A.** Active

**Q.** What about the Activity [9] of the same compound?
**A.** Active

**Q.** And the Activity [10]?
**A.** Active

**Q.** Which inhibition [1] does the source give for COc1ccc(CN2C3CC2CN(c2ccc(-c4cc(OCCCCCCCC(=O)N5CCN(c6ccc(C(=O)NCCOc7ccc(C8CCC(=O)N(C)C8=O)cc7)cn6)CC5)cn5ncc(C#N)c45)cn2)C3)cn1 (stereo not drawn) here?
**A.** Active

**Q.** And the inhibition [11]?
**A.** Active

**Q.** And the Activity [12]?
**A.** inactive

**Q.** For COc1ccc(CN2C3CC2CN(c2ccc(-c4cc(OCCCC(=O)NC5CC6(CCN(c7ccc(C(=O)NCCOc8ccc(C9CCC(=O)NC9=O)cc8)cc7)CC6)C5)cn5ncc(C#N)c45)cn2)C3)cn1 (stereo not drawn), which inhibition [1] is on record?
**A.** Active

**Q.** And the AUC ([2]; ip, 50 mg/kg, 48 h)?
**A.** 2342.1 ng·h/mL

**Q.** And the Cmax ([3]; ip, 50 mg/kg, 48 h)?
**A.** 44.9 ng/mL

**Q.** And the Tmax ([4]; ip, 50 mg/kg, 48 h)?
**A.** 0.17 h

**Q.** What about the t1/2 ([5]; ip, 50 mg/kg, 48 h) of the same compound?
**A.** 0.25 h
